The values below come from US9670363B2, “Substituted anthraquinone dyes for cellular stains and enzyme detection” (Biotium, Inc., priority 2011, dated 2017).

Entries after “also recorded” stand apart in the source; their conditions may differ.

What all share (format): cell-based
Data set [1] concerns HeLa cells. Nature of the data set: Staining of fixed and permeabilized cells. The settings on record: HeLa fixed with 4% paraformaldehyde, 0.5% Triton X-100; 3 μM DRAQ7 or 10 μM dye, 5 minutes, room temperature. The method, then: Adherent HeLa cells in 12-well plates were fixed with 4% paraformaldehyde for 15 minutes at room temperature. Cells were then permeabilized with 0.5% Triton X-100 for 10 minutes at room temperature. Three micromolar (3 μM, the manufacturer's recommended concentration) DRAQ7 or 10 μM Dye No. 7, 13, or 15 were added to the fixed and permeabilized cells in 1×PBS and incubated for 5 minutes at room temperature. The dye/PBS solution was removed and replaced with fresh 1×PBS. Fluorescence was observed using an epifluorescence microscope with the CY5 filter (FIG. 3).

For another data set, the system named is rat skeletal muscle. Nature of the data set: Staining of tissue sections with Dye No. 7. The settings on record: acetone-fixed frozen sections of rat skeletal muscle; 10 uM, five minutes, room temperature. The procedure:
Acetone-fixed frozen sections of rat skeletal muscle were purchased from Biochain Institute Inc. (Hayward, Calif.). Sections were rinsed in phosphate buffered saline and stained with 10 uM Dye No. 7 and 5 units/mL CF488A-phalloidin (Biotium Inc, Hayward, Calif.) for five minutes at room temperature. Sections were rinsed twice in phosphate buffered saline and mounted with EverBrite mounting medium (Biotium, Inc, Hayward, Calif.). Tissue fluorescence was imaged using the FITC and Cy5 filter sets of an Olympus IX71 epifluorescence microscope and a Q-Imaging Retiga 2000R Fast 1394 mono camera (FIG. 4).

For data set [2], the system named is HeLa cells. Nature of the data set: Staining of live (unfixed) HeLa cultures; selective staining of dead cells. Conditions: 1 uL of 500 uM dye stock in 100 uL medium, five minutes, room temperature. The method, then: HeLa cells were seeded at a density of 2×10^4 cells in 100 uL culture medium per well in tissue culture treated, optical bottom, black 96-well plates. One day after seeding, 1 uL of 500 uM dye stock in DMSO was added directly to the culture medium (100 uL) and mixed by trituration. The cells were incubated at room temperature for five minutes. The culture medium containing dye was removed and replaced by 100 uL phosphate buffered saline. Cellular fluorescence was imaged using an the Cy5 filter set of an Olympus IX71 epifluorescence microscope and a Q-Imaging Retiga 2000R Fast 1394 mono camera (FIG. 5). […] Probes that can selectively detect dead cells are useful in cell viability assays, which are widely practiced in drug screening.

Data set [3] concerns HeLa cells. Description: Staining live cells with Dye No. 1 (fluorescence microscopy). The settings on record: live adherent HeLa cells; 5 μM DRAQ5 or 10 μM Dye No. 1 in 1× PBS, 37° C., 5 minutes; CY5 filter. The procedure: Live, adherent HeLa cells grown in 12-well plates were treated with either 5 μM DRAQ5 or 10 μM of Dye No. 1 in 1× phosphate buffered saline (PBS). Cells were incubated at 37° C. for 5 minutes. Fluorescence was observed using an epifluorescence microscope with the CY5 filter.

The subject of data set [4] is HeLa cells. Description: Toxicity approximately 18 hours after staining (bright-field microscopy). The settings on record: live HeLa cells, 5 μM DRAQ5 or 20 μM Dye No. 1, 5 minutes at 37° C., then approximately 18 hours in fresh medium. The method, then:
Dark spots are indicative of dead cells.
Live HeLa cells were treated with either 5 μM DRAQ5 or 20 μM Dye No. 1 in 1×PBS for 5 minutes at 37° C. The dye/PBS solution was removed and replaced with fresh Dulbecco/Vogt modified Eagle's minimal essential medium (DMEM) supplemented with bovine growth serum (BGS). The cells were incubated at 37° C. for approximately 18 hours, and observed under bright-field at 10× magnification (FIG. 2).

In data set [5] the test system is HeLa cells. Nature of the data set: Normalizing or counting cell number. The settings on record: HeLa cells seeded at several densities, fixed, permeabilized, stained one hour at room temperature; LI-COR Odyssey. The procedure: HeLa cells were counted/normalized using Dye No. 1. HeLa cells were seeded in 96-well—lates at several densities per well (as indicated on the x-axis of FIG. 7). After 24 hours, cells were fixed, permeabilized, and stained with the indicated dyes for one hour at room temperature according to the protocol provided by the supplier of the DRAQ5/Sapphire700 system. Fluorescence was quantitated using a LI-COR Odyssey system. HeLa cells seeded at 25,000 cells were confluent at the time of the assay.

For `CN(C)CCNc1ccc(O)c2c1C(=O)c1c(O)ccc(NCCNC(=N)CCCCC(=N)NCCNc3ccc(O)c4c3C(=O)c3c(O)ccc(NCCN(C)C)c3C4=O)c1C2=O` [Dye No. 7], the “nuclear staining specificity in fixed and permeabilized cells” value in the data set with HeLa cells [1] is “much more specific in nuclear staining than Draq7; also recorded: stained cell nuclei specifically”. The “nuclear staining specificity in tissue” value in the data set with rat skeletal muscle is on record as “excellent nuclear specificity”. Further, the “staining of live versus dead cells in live (unfixed) culture” value with HeLa cells [2] was “selectively stained the nuclei of dead cells only”.

Regarding `CN(C)CCNc1ccc(O)c2c1C(=O)c1c(O)ccc(NCCNC(=O)C3CCCN3)c1C2=O` (centres unmarked) [Dye No. 1], in the data set on HeLa cells [3], the “nuclear staining of live cells” value is on record as “stained the nuclei of live cells with high specificity; also recorded: stained the nuclei of live cells specifically”. Further, the “toxicity (cell death) after staining” value with HeLa cells [4] is “caused fewer cell deaths than Draq5 even at a much higher concentration; also recorded: much less toxic than Draq5”. Further, the “staining of live versus dead cells in live (unfixed) culture” value in the data set on HeLa cells [2] is “stained the nuclei of all cells”. For the same compound, the “fluorescence versus number of cells stained” value in the data set with HeLa cells [5] is listed as “linear with the number of cells stained”.

With `O=C1c2c(O)ccc(NCCNC3=NCCN3)c2C(=O)c2c(O)ccc(NCCNC3=NCCN3)c21` [Dye No. 13], the “nuclear staining specificity in fixed and permeabilized cells” value with HeLa cells [1] is “much more specific in nuclear staining than Draq7”.

With `CC(=N)NCCNc1ccc(O)c2c1C(=O)c1c(O)ccc(NCCNC(C)=N)c1C2=O` [Dye No. 15], the “nuclear staining specificity in fixed and permeabilized cells” value in the data set with HeLa cells [1] was “much more specific in nuclear staining than Draq7; also recorded: stained cell nuclei specifically”.

As to `CN(C)CCNc1ccc(O)c2c1C(=O)c1c(O)ccc(NCCN(C)C)c1C2=O` [Draq5, reference compound], the “nuclear staining of live cells” value in the data set with HeLa cells [3] is given as “stained the nuclei of live cells with high specificity; also recorded: stained the nuclei of live cells specifically”. Moreover, in the data set on HeLa cells [4], the “toxicity (cell death) after staining” value was “more cell death than that with Dye No. 1”.
